Results on 21 compounds are retold here after patent US8623859B2, “Bradykinin B1 antagonists” (Evotec AG, priority 2008, dated 2014).

Each structure is given as a SMILES string. A value given as a limit tells only on which side of the number the result lay.

This assay has as its target T1, human B1 (Homo sapiens, UniProt P46663).
T1 construct: host or cells: CHO-K1
T1 sequence (P46663 1-353): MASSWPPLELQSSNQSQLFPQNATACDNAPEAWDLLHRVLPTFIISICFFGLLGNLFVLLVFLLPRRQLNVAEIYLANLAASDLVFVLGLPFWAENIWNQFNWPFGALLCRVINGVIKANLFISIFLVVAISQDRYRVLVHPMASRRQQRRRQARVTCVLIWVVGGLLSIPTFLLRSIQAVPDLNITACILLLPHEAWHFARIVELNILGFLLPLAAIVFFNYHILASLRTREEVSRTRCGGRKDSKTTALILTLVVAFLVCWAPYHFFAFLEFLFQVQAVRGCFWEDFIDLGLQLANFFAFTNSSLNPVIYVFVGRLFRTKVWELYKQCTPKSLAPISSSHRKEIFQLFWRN
The assay can be described thus: Calcium flux assay for Bradykinin B1 antagonist, CHO-K1 cell line expressing human B1. The assay is classed as cell-based. The note with it: CHO-K1 cells expressing human B1, agonist Lys-(Des-Arg)-Bradykinin, read-out: Potency (IC50 value against human B1). As to the method:
Calcium Flux Assay for Bradykinin B1 Antagonist
The potency to inhibit the Bradykinin B1 receptors was determined for the compounds of this invention in a cell-based fluorescent calcium-mobilization assay. The assay measures the ability of test compounds to inhibit Bradykinin B1 receptor agonist-induced increase of intracellular free Ca^2+ in cell lines expressing B1.
The change of the intracellular Ca^2+ concentration is monitored with a specifically designed fluorescent plate reader (FlexStation, Molecular Devices).
CHO-K1 cell line expressing human B1 was purchased from Euroscreen (Gosselies, Belgium, with reference name hBl-D1). CHO-K1 cell lines expressing rat B1 or mouse B1 were established in the following way: the full-length receptor-coding cDNA clones were obtained by PCR performed on rat or mouse brain cDNAs. The respective cDNAs were cloned into an expression vector under the control of a CMV promotor. The resultant plasmids were introduced into CHO-K1 cells with liposome technology (FuGENE; Roche Diagnostics, Basel), according to the standard protocols described by the manufacturer. Cell lines expressing a Bradykinin receptor were selected in the culture medium containing 400 μg/ml G418 (Sigma). From selected cell populations, monoclonal cell lines were isolated by single cell cloning. The expression of Bradykinin receptors was confirmed by immunofluorescence staining of the cells, as well as by calcium flux assay.
Human B1-expressing cells were grown in Nutrient Mixture Ham's F12 (Sigma) containing 10% Foetal bovine serum (Sigma) and 400 μg/ml G418 (Sigma), 5 μg/ml puromycim (Sigma); Rat B1 and mouse B1-expressing cells were grown in DMEM/F12 medium (Sigma) containing 10% Foetal bovine serum (Sigma) and 400 μg/ml G418 (Sigma).
For the calcium flux assay, 80% confluent cells were detached from the culture vessels with Versene (Gibco; for human B1 cell-line) or with 1× trypsin-EDTA solution (Sigma; for rodent B1 cell-line), and seeded into 384-well plates (Cell binding Surface; Corning, N.Y.; #3683) at a density of 15,000 cells per well for human B1 or at a density of 20,000 cells per well for rodent B1. Cells were seeded in a volume of 50 μl in medium without antibiotics and incubated overnight in a humidified atmosphere with 5% CO2 at 37° C. The following day, the medium was replaced with 20 μl of 5 μM Fluo-4AM dye (Molecular Probes) in assay buffer (2.5 mM probenicid, 1 mg/ml pluronic acid, 0.1% BSA, 135 mM NaCl, 5 mM KCl, 1.8 mM CaCl, 1 mM MgCl2, 10 mM HEPES, 5.6 mM glucose, 0.05% gelatine, pH 7.4). The calcium indicator loaded cells were incubated at 37° C. for 2 hrs. Extracellular dye was then removed and each well was filled with 45 μl of assay buffer. Cell plates were kept in dark until used. Test compounds were assayed at 8 concentrations in triplicate. Serial 10-fold dilutions in 100% DMSO were made at a 100-times higher concentration than the final concentration, and then diluted 1:10 in assay buffer. 5 μl of each diluted compound was added to the well of cell plates (yielding final concentration with 1% DMSO), and incubated for 30 min at 25° C. before the addition of B1 agonist on the FlexStation.
The addition of agonist 20 μl per well to the assay plate was carried out on the FlexStation while continuously monitoring Ca^2+-dependent fluorescence at 538 nm. The integrated values, normalized with the background fluorescence, were plotted against the logarithm of the antagonist concentrations.

One may read the IC50 as the concentration at which inhibition is half-maximal. As to `CN(CCc1ccc(C2=NCCN2)cc1)C(=O)c1coc(CN(C)S(=O)(=O)c2ccc(Cl)cc2Cl)c1` [Ex 22, 5-({[(2,4-dichlorophenyl)sulfonyl](methyl)amino}methyl)-N-{2-[4-(4,5-dihydro-1H-imidazol-2-yl)phenyl]ethyl}-N-methylfuran-3-carboxamide], the IC50 was 100 to 1000 nM.
For `CN(Cc1ccc(C2=NCCN2)cc1)C(=O)c1coc(CN(C)S(=O)(=O)c2c(Cl)cccc2Cl)c1` [Ex 23, 5-({[(2,6-dichlorophenyl)sulfonyl](methyl)amino}methyl)-N-[4-(4,5-dihydro-1H-imidazol-2-yl)benzyl]-N-methylfuran-3-carboxamide], the half-inhibitory concentration (IC50) was less than 10 nM.
Turning to `CN(CCc1ccc(C2=NCCN2)cc1)C(=O)c1coc(CN(C)S(=O)(=O)c2c(Cl)cc(Br)cc2Cl)c1` [Ex 24, 5-({[(4-bromo-2,6-dichlorophenyl)sulfonyl](methyl)amino}methyl)-N-{2-[4-(4,5-dihydro-1H-imidazol-2-yl)phenyl]ethyl}-N-methylfuran-3-carboxamide], the IC50 was less than 10 nM.
Next, `CN(Cc1cc(C(=O)NCCc2ccc(C3=NCCN3)cc2)co1)S(=O)(=O)c1c(Cl)cc(Br)cc1Cl` [Ex 25, 5-({[(4-bromo-2,6-dichlorophenyl)sulfonyl](methyl)amino}methyl)-N-{2-[4-(4,5-dihydro-1H-imidazol-2-yl)phenyl]ethyl}furan-3-carboxamide]: 100 to 1000 nM; `CN(Cc1cc(C(=O)NCc2ccc(C3=NCCN3)cc2)co1)S(=O)(=O)c1c(Cl)cccc1Cl` [Ex 26, 5-({[(2,6-dichlorophenyl)sulfonyl](methyl)amino}methyl)-N-[4-(4,5-dihydro-1H-imidazol-2-yl)benzyl]furan-3-carboxamide]: 100 to 1000 nM.
The same measure for `CN(Cc1cc(C(=O)NCc2ccc(CN3CCCC3)cc2)co1)S(=O)(=O)c1c(Cl)cc(Br)cc1Cl` [Ex 27, 5-({[(4-bromo-2,6-dichlorophenyl)sulfonyl](methyl)amino}methyl)-N-[4-(pyrrolidin-1-ylmethyl)benzyl]furan-3-carboxamide]: 100 to 1000 nM; for `Cc1cc(S(=O)(=O)N(C)Cc2cc(C(=O)N(C)CCc3ccc(C4=NCCN4)cc3)co2)c(C)cc1Cl` [Ex 28, 5-({[(4-chloro-2,5-dimethylphenyl)sulfonyl](methyl)amino}methyl)-N-{2-[4-(4,5-dihydro-1H-imidazol-2-yl)phenyl]ethyl}-N-methylfuran-3-carboxamide]: 100 to 1000 nM.
For the compound `COc1cc(C)c(S(=O)(=O)N(C)Cc2cc(C(=O)N(C)Cc3ccc(C4=NCCN4)cc3)co2)c(C)c1` [Ex 29, N-[4-(4,5-dihydro-1H-imidazol-2-yl)benzyl]-5-({[(4-methoxy-2,6-dimethylphenyl)sulfonyl](methyl)amino}methyl)-N-methylfuran-3-carboxamide], the 50% inhibitory concentration (IC50) is less than 10 nM.
`COc1cc(C)c(S(=O)(=O)N(C)Cc2cc(C(=O)N3CCCC(c4ccc(C5=NCCN5)cc4)C3)co2)c(C)c1` (stereo not drawn) [Ex 30, N-{[4-({3-[4-(4,5-dihydro-1H-imidazol-2-yl)phenyl]piperidin-1-yl}carbonyl)furan-2-yl]methyl}-4-methoxy-N,2,6-trimethylbenzenesulfonamide]: the IC50 is less than 10 nM.
Consider `COc1cc(C)c(S(=O)(=O)N(C)Cc2cc(C(=O)N3CCN(CC4CCCN(C)C4)CC3)co2)c(C)c1` (stereo not drawn) [Ex 31, 4-methoxy-N,2,6-trimethyl-N-{[4-({4-[(1-methylpiperidin-3-yl)methyl]piperazin-1-yl}carbonyl)furan-2-yl]methyl}benzenesulfonamide], for which the concentration for half-maximal inhibition (IC50) was in the range of 10 to 100 nM.
For the compound `COc1cc(C)c(S(=O)(=O)N(C)Cc2cc(C(=O)N3CCN(CC4CCN(C)CC4)CC3)co2)c(C)c1` [Ex 32, 4-methoxy-N,2,6-trimethyl-N-{[4-({4-[(1-methylpiperidin-4-yl)methyl]piperazin-1-yl}carbonyl)furan-2-yl]methyl}benzenesulfonamide], the 50% inhibitory concentration (IC50) lay within 100 to 1000 nM.
Next, `COc1cc(C)c(S(=O)(=O)N(C)Cc2cc(C(=O)N3CCN(CCc4ccncc4)CC3)co2)c(C)c1` [Ex 33, 4-methoxy-N,2,6-trimethyl-N-[(4-{[4-(2-pyridin-4-ylethyl)piperazin-1-yl]carbonyl}furan-2-yl)methyl]benzenesulfonamide]: 100 to 1000 nM; `COc1cc(C)c(S(=O)(=O)N(C)Cc2cc(C(=O)N3CCN(Cc4ccncc4)CC3)co2)c(C)c1` [Ex 34, 4-methoxy-N,2,6-trimethyl-N-[(4-{[4-(pyridin-4-ylmethyl)piperazin-1-yl]carbonyl}furan-2-yl)methyl]benzenesulfonamide]: 100 to 1000 nM; `COc1cc(C)c(S(=O)(=O)N(C)Cc2cc(C(=O)N3CCN(CCN4CCOCC4)CC3)co2)c(C)c1` [Ex 35, 4-methoxy-N,2,6-trimethyl-N-[(4-{[4-(2-morpholin-4-ylethyl)piperazin-1-yl]carbonyl}furan-2-yl)methyl]benzenesulfonamide]: 100 to 1000 nM.
The same measure for `COc1cc(C)c(S(=O)(=O)N(C)Cc2cc(C(=O)NCCc3ccc(C4=N[C@@H]5CCCC[C@H]5N4)cc3)co2)c(C)c1` [Ex 36, N-(2-{4-[(3aR,7aR)-3a,4,5,6,7,7a-hexahydro-1H-benzimidazol-2-yl]phenyl}ethyl)-5-({[(4-methoxy-2,6-dimethylphenyl)sulfonyl](methyl)amino}methyl)furan-3-carboxamide]: 10 to 100 nM; for `COc1cc(C)c(S(=O)(=O)N(C)Cc2cc(C(=O)NCc3ccc(CN4CCCC4)cc3)co2)c(C)c1` [Ex 37, 5-({[(4-methoxy-2,6-dimethylphenyl)sulfonyl](methyl)amino}methyl)-N-[4-(pyrrolidin-1-ylmethyl)benzyl]furan-3-carboxamide]: 100 to 1000 nM.
Next, `COc1cc(C)c(S(=O)(=O)N(C)Cc2cc(C(=O)N(C)Cc3ccc(-c4cncnc4)cc3)co2)c(C)c1` [Ex 38, 5-({[(4-methoxy-2,6-dimethylphenyl)sulfonyl](methyl)amino}methyl)-N-methyl-N-(4-pyrimidin-5-ylbenzyl)furan-3-carboxamide]: 100 to 1000 nM; `COc1cc(C)c(S(=O)(=O)N(C)Cc2cc(C(=O)N3CCN(CCN4CCCC4)CC3)co2)c(C)c1` [Ex 39, 4-methoxy-N,2,6-trimethyl-N-[(4-{[4-(2-pyrrolidin-1-ylethyl)piperazin-1-yl]carbonyl}furan-2-yl)methyl]benzenesulfonamide]: 100 to 1000 nM.
As to `COc1cc(C)c(S(=O)(=O)N(C)Cc2cc(C(=O)N(C)Cc3ccc(C4=NCC(C)(C)CN4)cc3)co2)c(C)c1` [Ex 40, N-[4-(5,5-dimethyl-1,4,5,6-tetrahydropyrimidin-2-yl)benzyl]-5-({[(4-methoxy-2,6-dimethylphenyl)sulfonyl](methyl)amino}methyl)-N-methylfuran-3-carboxamide], the IC50 fell in the range of 100 to 1000 nM.
On to `COc1cc(C)c(S(=O)(=O)N(C)Cc2cc(C(=O)N3CCC(CN4CCCC4)CC3)co2)c(C)c1` [Ex 41, 4-methoxy-N,2,6-trimethyl-N-[(4-{[4-(pyrrolidin-1-ylmethyl)piperidin-1-yl]carbonyl}furan-2-yl)methyl]benzenesulfonamide], for which the half-maximal inhibitory concentration (IC50) lay in the range of 100 to 1000 nM.
Take `COc1cc(C)c(S(=O)(=O)N(C)Cc2cc(C(=O)NCCc3ccc(CNCC(C)C)cc3)co2)c(C)c1` [Ex 42, 5-({[(4-methoxy-2,6-dimethylphenyl)sulfonyl](methyl)amino}methyl)-N-[2-(4-{[(2-methylpropyl)amino]methyl}phenyl)ethyl]furan-3-carboxamide]: the IC50 was in the range of 100 to 1000 nM.
